Reference: ChEMBL document CHEMBL4610046, “Diacyl disulfides as the precursors for hydrogen persulfide (H2S2)” (Bioorg Med Chem Lett, 2020)
The source made the active and inactive calls. No cut-off for these calls is given here.

Legend:
PC-3 [1] = assay: Induction of H2S generation in human PC3 cells at 100 uM pretreated with thiol blocking reagent NEM for 30 mins followed by lysine treatment for 20 mins and subsequent compound treatment after 30 mins by DSP-3 probe based fluorescence assay; format: functional, cell-based
[2] = Induction of DPPH reduction by H2S2 generated from parent compound by UV spectrometry; set-up: scale not given: the % may be the effect or the level left
PC-3 [3] = assay: Induction of H2S generation in human PC3 cells at 100 uM measured after 30 mins by DSP-3 probe based fluorescence assay; format: functional, cell-based
[4] = GSH reactivity in human PC3 cells under physiological conditions; format: ADME, cell-based; conditions: pc-3
HeLa [5] = assay: Induction of H2S2 generation in human HeLa cells at 100 uM pretreated with thiol blocking reagent NEM for 30 mins followed by lysine treatment for 20 mins and subsequent compound treatment after 30 mins by DSP-3 probe based fluorescence assay; format: functional, cell-based
[6] = Cysteine reactivity in human PC3 cells under physiological conditions; format: ADME, cell-based; conditions: pc-3
PC-3 [7] = assay: Induction of H2S2 generation in human PC3 cells at 100 uM measured after 30 mins by DSP-3 probe based fluorescence assay; format: functional, cell-based
PC-3 [8] = assay: Induction of H2S2 generation in human PC3 cells at 100 uM pretreated with thiol blocking reagent NEM for 30 mins followed by lysine treatment for 20 mins and subsequent compound treatment after 30 mins by DSP-3 probe based fluorescence assay; format: functional, cell-based
[9] = Stability of compound in THF incubated at room temperature; format: physicochemical
HeLa [10] = assay: Induction of H2S generation in human HeLa cells at 100 uM pretreated with thiol blocking reagent NEM for 30 mins followed by lysine treatment for 20 mins and subsequent compound treatment after 30 mins by DSP-3 probe based fluorescence assay; format: functional, cell-based
[11] = Stability of compound in DCM incubated at room temperature; format: physicochemical
[12] = Stability of compound assessed as compound decomposition at 4 degree C measured after 3 weeks; format: physicochemical; conditions: 504 h
HeLa [13] = assay: Induction of H2S2 generation in human HeLa cells at 100 uM measured after 30 mins by DSP-3 probe based fluorescence assay; format: functional, cell-based
HeLa [14] = assay: Induction of H2S generation in human HeLa cells at 100 uM measured after 30 mins by DSP-3 probe based fluorescence assay; format: functional, cell-based
[15] = Drug metabolism in PBS buffer assessed as hydrolysis at pH 7.4 in presence of 25 uM CTAB by DSP-3 probe based fluorescence assay; format: physicochemical

With `CC(=O)SSC(C)=O` the Activity (PC-3 [1]) was “Active”, the Activity [2] was 40% and the Activity (PC-3 [3]) was “Active”. The Drug metabolism [4] was “Active”, the Activity (HeLa [5]) was “Active” and the Drug metabolism [6] was “Active”. The Activity (PC-3 [7]) was “Active”, the Activity (PC-3 [8]) was “Active” and the Stability [9] was “Stable”. The Activity (HeLa [10]) was “Active”, the Stability [11] was “Stable” and the Stability [12] was “Stable”. For the same compound, the Activity (HeLa [13]) was “Active” and the Activity (HeLa [14]) was “Active”.

In the case of `CC(C)(C(=O)SSC(=O)C(C)(C)c1ccccc1)c1ccccc1`, the Stability [9] is reported as “Stable”, the Stability [11] is reported as “Stable” and the Stability [12] is reported as “Stable”. The Drug metabolism [15] was “Metabolite_Notdetected”.

With `CC[Si](CC)(CC)OC(S)C(C)C` (centres undefined) the Activity [2] was 15%.

Work on `NCCN` yielded an Activity [2] of 40%.

With `O=C(Cc1ccccc1)SSC(=O)Cc1ccccc1` the Stability [9] was “Stable”, the Stability [11] was “Stable” and the Stability [12] was “Stable”.

Work on `CC[Si](CC)(CC)OC(SSC(O[Si](CC)(CC)CC)C(C)C)C(C)C` (centres undefined) yielded an Activity [2] of 30%.
